Source: patent US5550128A, “Enantiomers of gamma methylene 10-deaza aminopterin and process for preparing the same” (priority 1994, dated 1996)

What was measured:
[1] = test system: Human HCT-8 Ileocecal Xenograft; assay: Antitumor activity by I.V. push, daily × 5, against human HCT-8 ileocecal xenograft
Text: [M. G. Nair and Ann Abraham, U.S. Pat. No. 4,996,207 (1991); M. G. Nair, U.S. Pat. No. 5,073,554 (1991 )]. […] [Ann Abraham, M. G. Nair, et al. Advanced in Exp. Med. and Biol. 663-666 (1993)].
MIR: Maximum inhibitory rate. TD: Tumor doubling time.
CR: Complete Regression. PR Partial Regression.
(§1) MWL: Maximum Weight Loss.

[2] = Antitumor activity by continuous i.v. infusion (C.I.) × 5d against human HCT-8 ileocecal xenograft; format: in vivo, human (xenograft in nude mice); conditions: mouse, in vivo, iv; 0.25 mg/kg, C.I. × 5d; read-out: death
Text: (§2) Antitumor Activity of MDAM by C.I. × 5d
(§3) against HUMAN HCT-8 Ileocecal Xenograft
(§4) MIR: Maximum inhibitory rate.
(§5) TD: Tumor doubling time.
(§6) CR: Complete Regression.
(§7) PR: Partial Regression.
as §1

[3] = test system: Human HCT-8 Ileocecal Xenograft; assay: as above; format: in vivo, human (xenograft in nude mice); conditions: for CR: Complete Regression / MIR: Maximum inhibitory rate / PR: Partial Regression / TD: Tumor doubling time: C.I. × 5d
Text: as §2, §3, §4, §5, §6, §7, §1

CN(Cc1cnc2nc(N)nc(N)c2n1)c1ccc(C(=O)N[C@@H](CCC(=O)O)C(=O)O)cc1 [MTX, methotrexate, reference compound]
CR: Complete Regression ([1]; 1 mg/kg, i.v. push daily × 5): 0%
MIR: Maximum inhibitory rate ([1]; 1 mg/kg, i.v. push daily × 5): 29.8 ± 8.6%
MWL: Maximum Weight Loss ([1]; 1 mg/kg, i.v. push daily × 5): 14.0 ± 3.0%
PR: Partial Regression ([1]; 1 mg/kg, i.v. push daily × 5): 0%
TD: Tumor doubling time ([1]; 1 mg/kg, i.v. push daily × 5): 4.6 ± 0.6 days
measurable antitumor activity ([1]; iv push, HCT-8 xenograft): did not exhibit any measurable antitumor activity
mortality [2]: 100%
CR: Complete Regression ([3]; 0.1 mg/kg): 0%
MIR: Maximum inhibitory rate ([3]; 0.1 mg/kg): 50.6 ± 9.6%
PR: Partial Regression ([3]; 0.1 mg/kg): 0%
TD: Tumor doubling time ([3]; 0.1 mg/kg): 4.8 ± 0.4 days
CR: Complete Regression ([3]; 0.2 mg/kg): 0%
MIR: Maximum inhibitory rate ([3]; 0.2 mg/kg): 52.8 ± 8.5%
PR: Partial Regression ([3]; 0.2 mg/kg): 0%
TD: Tumor doubling time ([3]; 0.2 mg/kg): 5 ± 0.5 days
CR: Complete Regression ([3]; 0.25 mg/kg): 0%
PR: Partial Regression ([3]; 0.25 mg/kg): 0%
measurable antitumor activity ([3]; continuous 5 day iv infusion, HCT-8 xenograft): did not exhibit any measurable antitumor activity
